Experiments:
[1] = system: surface/cytoplasmic nucleolin; test: Down regulation of surface/cytoplasmic nucleolin in MDA-MB 231 cells, immunoblotting; type: cell-based, human; settings: MDA-MB 231, 10 μM, 16 hours, immunoblotting with mAb D3; nuclear nucleolin not affected
Procedure: Nucleolin was analyzed by immunoblotting using either the monoclonal antibody (mAb) D3 against nucleolin (kindly provided by Dr. J. S. Deng), or rabbit polyclonal antibodies directed against a synthetic peptide corresponding to the first 26 ([…]) and the last 16 ([…]) amino acid residues of human nucleolin as described before. […] The reacting bands were visualized with an enhanced chemiluminescence (ECL) reagent and by exposure to autoradiography film (Amersham Biosciences). In some experiments, the presence of actin was monitored as a control with mAb anti-actin A-4700 (Sigma). […]
Figure 2 HB-19 and related Nucant pseudopeptides antagonize surface nucleolin and trigger its down regulation. […] At 48 h post-infection, the β-galactosidase activity was measured in cell extracts directly to monitor HIV entry (Methods). The abscissa gives % Activity of surface nucleolin calculated from the optical density measurements at 570 nm. […] Cytoplasmic (containing cytoplasmic as well as surface nucleolin) and nuclear extracts were analyzed by immunoblotting using mAb D3 as described (Methods)(panels Surface/cytoplasmic NCL, Nuclear NCL). […] HeLa cells in the absence (histogram C) or presence of 1, 2, 5, and 10 μM of N6L were cultured for 7 hours before preparation of cell extracts and immunoblotting as in section B. The intensity of nucleolin protein bands was quantified by using the NIH image software. […]

[2] = system: MDA-MB 231; test: Cell death (trypan blue uptake); type: cell-based, human; settings: MDA-MB 231, subconfluent, N6 or N7 20 μM, mean of at least 2 independent experiments
Procedure: (§1) Human breast (MDA-MB-231, MDA-MB-435 [37]), prostate (LNCaP, from American Type Culture Collection, ATCC, Rockville, MD), and cervical (HeLa) epithelial cancer cells were grown in DMEM-glutamax medium (Gibco Invitrogen, Cergy-Pontoise, France) containing GlutaMAX™, 4.5 g/l glucose and supplemented with 10% heat-inactivated (56°C for 30 min) fetal bovine serum (FBS; Hyclone, Thermo Fisher Scientific, Inc). Human SW480 cells are derived from a grade 3-4 colon carcinoma, while the highly metastatic counterpart SW620 is established from the lymph node of a person. Both SW480 and SW620 cells (obtained from Francis Raul, IRCAD) are highly tumorigenic in nude mice. They were cultured in D-MEM, 10% FCS. The murine melanoma TIII cell line was obtained from Armelle Prévost-Blondel. Murine T29 lymphoma cells, obtained from Philippe Kastner (CNRS, Strasbourg), have been established from Ik^L/L tumors from mice carrying a hypomorphic mutation (Ik^L/L) in the Ikaros gene encoding a transcription factor that regulates lymphocyte differentiation, and acts also as a tumor suppressor in T lymphocytes. The T29 cells were cultured in RPMI medium containing 25 mM Hepes pH 7.6, 1 mM sodium pyruvate, and 10% FCS. Human leukemia cell lines, Jurkat (acute T cell leukemia), HuT 78 (cutaneous T lymphocyte), RAJI (Burkitt lymphoma), and HL60 (promyelocytic leukemia) were cultured in RPMI-1640 medium (Gibco) containing GlutaMAX™, and supplemented with 10% heat-inactivated FBS as described before. The wild-type Chinese hamster ovary cell line (CHO K1) was purchased from American Type Culture Collection (ATCC; Rockville, MD). The CHO LRP1-null cell line (CHO-13-5-1) was kindly provided by D. Strickland [47]. They were cultured in Ham's F12K medium. All cells were cultured with 10% (v/v) heat inactivated (56°C, 30 min) fetal bovine serum (FBS) (Roche Molecular Biochemicals, Indianapolis, IN) and 50 international units/mL penicillin-streptomycin (Invitrogen). Cell death was monitored conveniently by uptake of the trypan blue dye due to plasma membrane permeability of dying and/or dead cells.

[3] = system: MDA-MB 435; test: Cell death (trypan blue uptake); type: cell-based, human; settings: MDA-MB 435, subconfluent, N6 or N7 20 μM, mean of at least 2 independent experiments
Procedure: as §1

[4] = system: SW620; test: Cell death (trypan blue uptake); type: cell-based, human; settings: SW620, subconfluent, N6 or N7 20 μM, mean of at least 2 independent experiments
Procedure: as §1

[5] = system: HeLa; test: Cell death (trypan blue uptake); type: cell-based, human; settings: subconfluent, N6 or N7 20 μM, mean of at least 2 independent experiments
Procedure: as §1

[6] = system: Jurkat; test: Cell death (trypan blue uptake); type: cell-based, human; settings: freshly passaged, N6 or N7 20 μM, mean of at least 2 independent experiments
Procedure: as §1

[7] = system: TIII; test: Cell death (trypan blue uptake); type: cell-based, murine; settings: subconfluent, N6 or N7 20 μM, mean of at least 2 independent experiments
Procedure: as §1

[8] = system: T29; test: Cell death (trypan blue uptake); type: cell-based, murine; settings: for % Cell death After 24 hours: T29, freshly passaged, N6 or N7 20 μM, mean of at least 2 independent experiments; for IC50: T29 cells, 0-20 μM, read-out: Cell death: IC50 24 hours post-passage
Procedure: as §1

Row | Substance | level of surface/cytoplasmic nucleolin [1] | % Cell death After 24 hours [2] [%] | % Cell death After 24 hours [3] [%] | % Cell death After 24 hours [4] [%] | % Cell death After 24 hours [5] [%] | % Cell death After 24 hours [6] [%] | % Cell death After 24 hours [7] [%] | % Cell death After 24 hours [8] [%] | IC50 [8] [µM]
1 | Ac-Lys-Aib-Gly-Lys-Aib-Gly-Lys-Aib-Gly-Lys-Aib-Gly-Lys-Aib-Gly-Lys-Aib-Gly-CONH2 [Nucant N6, Presents hexavalently the pseudo-tripeptide Lysψ(CH2N)-Pro-Arg coupled to the polypeptide template containing Aib] | almost completely abolished | < 5 | < 5 | < 5 | < 5 | 45 | < 5 | 45 | 20
2 | Ac-KAKPGKAKPGKAKPG-NH2 [Nucant N7, Presents hexavalently the pseudo-tripeptide Lysψ(CH2N)-Pro-Arg coupled to a similar template as in HB-19] | almost completely abolished | < 5 | < 5 | < 5 | < 5 | 45 | < 5 | 45 | 20
